From PubChem BioAssay (NCI)
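Exposure lasted 48 hours, with cells grown in 96-well plates and compounds tested at five concentrations. The concentration for 50% growth inhibition is given as GI50. TGI marks complete inhibition of growth.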

Experiments:
Assay in all cases: NCI-60 cell line screen, 48 h
SNB-19 CNS = test system: SNB-19 CNS
MCF7 breast = test system: MCF7 breast
NCI-H23 lung = test system: NCI-H23 lung
SF-268 CNS = test system: SF-268 CNS
OVCAR-3 ovarian = test system: OVCAR-3 ovarian
SF-539 CNS = test system: SF-539 CNS
M14 melanoma = test system: M14 melanoma
NCI/ADR-RES ovarian = test system: NCI/ADR-RES ovarian
OVCAR-4 ovarian = test system: OVCAR-4 ovarian
UACC-257 melanoma = test system: UACC-257 melanoma
RPMI-8226 leukemia = test system: RPMI-8226 leukemia
SW-620 colon = test system: SW-620 colon
SK-MEL-5 melanoma = test system: SK-MEL-5 melanoma
T-47D breast = test system: T-47D breast
NCI-H522 lung = test system: NCI-H522 lung
TK-10 renal = test system: TK-10 renal
SR leukemia = test system: SR leukemia
MALME-3M melanoma = test system: MALME-3M melanoma
ACHN renal = test system: ACHN renal
786-0 renal = test system: 786-0 renal
RXF 393 renal = test system: RXF 393 renal
HT29 colon = test system: HT29 colon
MDA-MB-231 breast = test system: MDA-MB-231 breast
A549 NSCLC = test system: A549 NSCLC
DU-145 prostate = test system: DU-145 prostate
NCI-H460 lung = test system: NCI-H460 lung
SK-OV-3 ovarian = test system: SK-OV-3 ovarian
NCI-H226 lung = test system: NCI-H226 lung
HS 578T breast = test system: HS 578T breast
SK-MEL-28 melanoma = test system: SK-MEL-28 melanoma
CCRF-CEM leukemia = test system: CCRF-CEM leukemia
OVCAR-5 ovarian = test system: OVCAR-5 ovarian
SN12C renal = test system: SN12C renal
UO-31 renal = test system: UO-31 renal
MDA-MB-435 = test system: MDA-MB-435
HCT-116 colon = test system: HCT-116 colon
K-562 leukemia = test system: K-562 leukemia
SNB-75 CNS = test system: SNB-75 CNS
HOP-92 NSCLC = test system: HOP-92 NSCLC
A498 renal = test system: A498 renal
HCC-2998 colon = test system: HCC-2998 colon
SK-MEL-2 melanoma = test system: SK-MEL-2 melanoma
SF-295 CNS = test system: SF-295 CNS
HOP-62 NSCLC = test system: HOP-62 NSCLC
EKVX NSCLC = test system: EKVX NSCLC
LOX IMVI melanoma = test system: LOX IMVI melanoma
HCT-15 colon = test system: HCT-15 colon
BT-549 breast = test system: BT-549 breast
CAKI-1 renal = test system: CAKI-1 renal
U251 CNS = test system: U251 CNS
MOLT-4 leukemia = test system: MOLT-4 leukemia
PC-3 prostate = test system: PC-3 prostate
UACC-62 melanoma = test system: UACC-62 melanoma
IGROV1 ovarian = test system: IGROV1 ovarian
COLO 205 colon = test system: COLO 205 colon
KM12 colon = test system: KM12 colon

## N#Cc1ccc(N2Cc3cc(Cl)ccc3OC3=C2C(=O)N(Cc2ccccc2)C3=O)cc1
SNB-19 CNS
  GI50: 3320 nM
  TGI: 11700 nM
MCF7 breast
  GI50: 769 nM
  TGI: 4720 nM
NCI-H23 lung
  GI50: 2140 nM
  TGI: 5340 nM
SF-268 CNS
  GI50: 1750 nM
  TGI: 3890 nM
OVCAR-3 ovarian
  GI50: 442 nM
  TGI: 1540 nM
SF-539 CNS
  GI50: 1700 nM
  TGI: 3190 nM
M14 melanoma
  GI50: 1490 nM
  TGI: 3680 nM
NCI/ADR-RES ovarian
  GI50: 2690 nM
  TGI: 11400 nM
OVCAR-4 ovarian
  GI50: 1410 nM
  TGI: 3260 nM
UACC-257 melanoma
  GI50: 1350 nM
  TGI: 2850 nM
RPMI-8226 leukemia
  GI50: 280 nM
  TGI: 1060 nM
SW-620 colon
  GI50: 278 nM
  TGI: 971 nM
SK-MEL-5 melanoma
  GI50: 1840 nM
  TGI: 3510 nM
T-47D breast
  GI50: 714 nM
  TGI: 2580 nM
NCI-H522 lung
  GI50: 250 nM
  TGI: 620 nM
TK-10 renal
  GI50: 1450 nM
  TGI: 2770 nM
SR leukemia
  GI50: 242 nM
  TGI: 828 nM
MALME-3M melanoma
  GI50: 1440 nM
  TGI: 3080 nM
ACHN renal
  GI50: 870 nM
  TGI: 2200 nM
786-0 renal
  GI50: 1920 nM
  TGI: 3440 nM
RXF 393 renal
  GI50: 1540 nM
  TGI: 3050 nM
HT29 colon
  GI50: 1580 nM
  TGI: 3960 nM
MDA-MB-231 breast
  GI50: 1740 nM
  TGI: 3990 nM
A549 NSCLC
  GI50: 10100 nM
  TGI: 26700 nM
DU-145 prostate
  GI50: 1480 nM
  TGI: 2820 nM
NCI-H460 lung
  GI50: 2090 nM
  TGI: 4520 nM
SK-OV-3 ovarian
  GI50: 10900 nM
  TGI: 31500 nM
NCI-H226 lung
  GI50: 1930 nM
  TGI: 6780 nM
HS 578T breast
  GI50: 2620 nM
  TGI: 9250 nM
SK-MEL-28 melanoma
  GI50: 1620 nM
  TGI: 3410 nM
CCRF-CEM leukemia
  GI50: 226 nM
  TGI: 827 nM
OVCAR-5 ovarian
  GI50: 1960 nM
  TGI: 4080 nM
SN12C renal
  GI50: 1510 nM
  TGI: 3140 nM
UO-31 renal
  GI50: 1320 nM
  TGI: 2610 nM
MDA-MB-435
  GI50: 1340 nM
  TGI: 3270 nM
HCT-116 colon
  GI50: 284 nM
  TGI: 1250 nM
K-562 leukemia
  GI50: 359 nM
  TGI: 2020 nM
SNB-75 CNS
  GI50: 1240 nM
  TGI: 2530 nM
HOP-92 NSCLC
  GI50: 1450 nM
  TGI: 3090 nM
A498 renal
  GI50: 1830 nM
  TGI: 3960 nM
HCC-2998 colon
  GI50: 1890 nM
  TGI: 3650 nM
SK-MEL-2 melanoma
  GI50: 2080 nM
  TGI: 4510 nM
SF-295 CNS
  GI50: 5220 nM
  TGI: 20400 nM
HOP-62 NSCLC
  GI50: 2350 nM
  TGI: 6120 nM
EKVX NSCLC
  GI50: 2020 nM
  TGI: 4920 nM
LOX IMVI melanoma
  GI50: 1470 nM
  TGI: 2850 nM
HCT-15 colon
  GI50: 628 nM
  TGI: 2950 nM
BT-549 breast
  GI50: 1600 nM
  TGI: 3300 nM
CAKI-1 renal
  GI50: 1390 nM
  TGI: 2780 nM
U251 CNS
  GI50: 1560 nM
  TGI: 2980 nM
MOLT-4 leukemia
  GI50: 250 nM
  TGI: 818 nM
PC-3 prostate
  GI50: 1410 nM
  TGI: 3520 nM
UACC-62 melanoma
  GI50: 1260 nM
  TGI: 2860 nM
IGROV1 ovarian
  GI50: 2190 nM
  TGI: 4880 nM
COLO 205 colon
  GI50: 1210 nM
  TGI: 2920 nM
KM12 colon
  GI50: 2700 nM
  TGI: 8010 nM
